In patent publication US4231928A, “Antibacterial agents” (priority 1979, dated 1980):
Values after ≈ are worked out from the molar mass of the structure shown. Where two headings read alike, the source gives them in different places.

Assays:
Assay type in all cases: cell-based
[1] = system: P. vulgaris; assay: Serial twofold agar dilution (Mueller-Hinton agar), P. vulgaris; conditions: Proteus vulgaris, P. vulgaris A9539, Table 1, read-out: MIC
Protocol: (§1) The Minimum Inhibitory Concentrations (MIC) for sodium 6-[D-(-)-α-phenyl-α-(7-hydroxy-4-oxo-4H-pyrimido[1,2-b]pyridazin-3-ylcarboxamido)acetamido]penicillanate (BB-P598) and sulbenicillin were determined by the serial twofold agar dilution method using Steers' apparatus on Mueller-Hinton agar plates against 31 test organisms for the primary screening (Table 1) and also against 61 strains of Pseudomonas aeruginosa for the secondary evaluation (Table 2).
(§2) Minimum Inhibitory Concentrations (MIC) for sodium 6-[D-(-)-α-phenyl-α-(7-hydroxy-4-oxo-4H-pyrimido[1,2-b]pyridazin-3-ylcarboxamido)acetamido]pencillanate (BB-P598), sodium 6-[D-(-)-α-(4-hydroxyphenyl)-α-(7-hydroxy-4-oxo-4H-pyrimido[1,2-b]pyridazin-3-ylcarboxamido)acetamido]-penicillanate (BB-P642) and carbenicillin were determined by the serial twofold agar dilution method using Steers' apparatus on Mueller-Hinton agar plates against 31 tests organisms (Table 8) and also against 61 strains of Pseudomonas aeruginosa (Table 9). In terms of mean % relative activity compared with carbenicillin, compounds BB-B598 and BB-P642 were 856% and 1319% as active as carbenicillin against the 61 Pseudomonas strains of Table 9.

[2] = system: S. enteritidis; assay: Serial twofold agar dilution (Mueller-Hinton agar), S. enteritidis; conditions: Salmonella enterica, S. enteritidis A9531, Table 1, read-out: MIC
Protocol: as §1, §2

[3] = system: S. aureus; assay: Serial twofold agar dilution (Mueller-Hinton agar), S. aureus; conditions: Staphylococcus aureus
Protocol: as §1, §2

[4] = system: P. morganii; assay: Serial twofold agar dilution (Mueller-Hinton agar), P. morganii; conditions: Morganella morganii, P. morganii A9553, Table 1, read-out: MIC
Protocol: as §1, §2

[5] = system: K. pneumoniae; assay: Serial twofold agar dilution (Mueller-Hinton agar), K. pneumoniae; conditions: Klebsiella pneumoniae, K. pneumoniae A9977, Table 1, read-out: MIC
Protocol: as §1, §2

[6] = system: Pseudomonas sp.; assay: Serial twofold agar dilution (Mueller-Hinton agar), Pseudomonas sp.; conditions: Pseudomonas sp. A20358, Table 1, read-out: MIC
Protocol: as §1, §2

[7] = system: S. marcescens; assay: Serial twofold agar dilution (Mueller-Hinton agar), S. marcescens; conditions: Serratia marcescens, S. marcescens A20019, Table 1
Protocol: as §1, §2

[8] = system: Pseudomonas aeruginosa; assay: Serial twofold agar dilution (Mueller-Hinton agar), P. aeruginosa; conditions: Pseudomonas aeruginosa
Protocol: as §1, §2

[9] = system: P. mirabilis; assay: Serial twofold agar dilution (Mueller-Hinton agar), P. mirabilis; conditions: Proteus mirabilis, P. mirabilis A9900; Mueller-Hinton agar; Table 1; read-out: MIC
Protocol: as §1, §2

[10] = system: E. coli; assay: Serial twofold agar dilution (Mueller-Hinton agar), E. coli; conditions: Escherichia coli
Protocol: as §1, §2

[11] = system: E. cloacae; assay: Serial twofold agar dilution (Mueller-Hinton agar), E. cloacae; conditions: Enterobacter cloacae
Protocol: as §1, §2

[12] = system: Klebsiella sp.; assay: Serial twofold agar dilution (Mueller-Hinton agar), Klebsiella sp.
Protocol: as §1, §2

CC1(C)S[C@@H]2[C@H](NC(=O)C(c3ccccc3)S(=O)(=O)O)C(=O)N2[C@H]1C(=O)O (stereo partly shown) [Sulbenicillin, reference compound]
MIC [1]: 1.6 µg/mL (≈ 3.86 µM) | MIC [2]: 1.6 µg/mL (≈ 3.86 µM) | MIC ([3]; S. aureus BX-1633 A15097, Table 1, read-out: MIC): 12.5 µg/mL (≈ 30.2 µM) | MIC ([3]; S. aureus BX-1633 A20701, Table 1, read-out: MIC): 50 µg/mL (≈ 121 µM) | MIC ([3]; S. aureus Smith A9537, Table 1, read-out: MIC): 1.6 µg/mL (≈ 3.86 µM) | MIC [4]: > 100 µg/mL | MIC [5]: 3.1 µg/mL (≈ 7.48 µM) | MIC [6]: 3.1 µg/mL (≈ 7.48 µM) | MIC [7]: 6.3 µg/mL (≈ 15.2 µM) | MIC ([8]; 61 strains of P. aeruginosa, Table 2, read-out: Geometric mean of MIC): 31.4 µg/mL (≈ 75.8 µM) | MIC ([8]; GN315, Pa-27 GN315 A21294, Mueller-Hinton agar, Table 2, read-out: MIC): 50 µg/mL (≈ 121 µM) | MIC ([8]; GN4925, Pa-45 GN4925, Mueller-Hinton agar, Table 2, read-out: MIC): 50 µg/mL (≈ 121 µM) | MIC ([8]; P. aeruginosa A9843, Mueller-Hinton agar, Table 1, read-out: MIC): 25 µg/mL (≈ 60.3 µM) | MIC ([8]; P. aeruginosa A9930, Mueller-Hinton agar, Table 1, read-out: MIC): 12.5 µg/mL (≈ 30.2 µM) | MIC ([8]; P. aeruginosa A15150, Mueller-Hinton agar, Table 1, read-out: MIC): 12.5 µg/mL (≈ 30.2 µM) | MIC ([8]; P. aeruginosa A20229, Mueller-Hinton agar, Table 1, read-out: MIC): 12.5 µg/mL (≈ 30.2 µM) | MIC ([8]; P. aeruginosa A20717, Mueller-Hinton agar, Table 1, read-out: MIC): 100 µg/mL (≈ 241 µM) | MIC ([8]; Pa-2 VA A9923, Mueller-Hinton agar, Table 2, read-out: MIC): 12.5 µg/mL (≈ 30.2 µM) | MIC ([8]; Pa-3 1449VA A9930, Mueller-Hinton agar, Table 2, read-out: MIC): 6.3 µg/mL (≈ 15.2 µM) | MIC ([8]; Pa-4 H9 D113 A21295, Mueller-Hinton agar, Table 2, read-out: MIC): 25 µg/mL (≈ 60.3 µM) | MIC ([8]; Pa-6 No. 5 A15194, Mueller-Hinton agar, Table 2, read-out: MIC): > 100 µg/mL | MIC ([8]; Pa-10 A20479, Mueller-Hinton agar, Table 2, read-out: MIC): > 100 µg/mL | MIC ([8]; Pa-12 A20653, Mueller-Hinton agar, Table 2, read-out: MIC): 50 µg/mL (≈ 121 µM) | MIC ([8]; Pa-15 A20717, Mueller-Hinton agar, Table 2, read-out: MIC): 100 µg/mL (≈ 241 µM) | MIC ([8]; Pa-16 #130 A20718, Mueller-Hinton agar, Table 2, read-out: MIC): 6.3 µg/mL (≈ 15.2 µM) | MIC ([8]; Pa-17 H6 D114, Mueller-Hinton agar, Table 2, read-out: MIC): 12.5 µg/mL (≈ 30.2 µM) | MIC ([8]; Pa-18 H8 D121, Mueller-Hinton agar, Table 2, read-out: MIC): 12.5 µg/mL (≈ 30.2 µM) | MIC ([8]; Pa-19 A20229, Mueller-Hinton agar, Table 2, read-out: MIC): 12.5 µg/mL (≈ 30.2 µM) | MIC ([8]; Pa-23 A20741, Mueller-Hinton agar, Table 2, read-out: MIC): 50 µg/mL (≈ 121 µM) | MIC ([8]; Pa-24 A20896, Mueller-Hinton agar, Table 2, read-out: MIC): 100 µg/mL (≈ 241 µM) | MIC ([8]; Pa-25 A20897, Mueller-Hinton agar, Table 2, read-out: MIC): 12.5 µg/mL (≈ 30.2 µM) | MIC ([8]; Pa-26 Ps32, Mueller-Hinton agar, Table 2, read-out: MIC): 12.5 µg/mL (≈ 30.2 µM) | MIC ([8]; Pa-28 CPH10527/72, Mueller-Hinton agar, Table 2, read-out: MIC): 50 µg/mL (≈ 121 µM) | MIC ([8]; Pa-29 D122, Mueller-Hinton agar, Table 2, read-out: MIC): 25 µg/mL (≈ 60.3 µM) | MIC ([8]; Pa-31 A20594, Mueller-Hinton agar, Table 2, read-out: MIC): 12.5 µg/mL (≈ 30.2 µM) | MIC ([8]; Pa-33 A20598, Mueller-Hinton agar, Table 2, read-out: MIC): 100 µg/mL (≈ 241 µM) | MIC ([8]; Pa-35, Mueller-Hinton agar, Table 2, read-out: MIC): 100 µg/mL (≈ 241 µM) | MIC ([8]; Pa-36, Mueller-Hinton agar, Table 2, read-out: MIC): 1.6 µg/mL (≈ 3.86 µM) | MIC ([8]; Pa-37 A20130, Mueller-Hinton agar, Table 2, read-out: MIC): 50 µg/mL (≈ 121 µM) | MIC ([8]; Pa-38 A20349, Mueller-Hinton agar, Table 2, read-out: MIC): 50 µg/mL (≈ 121 µM) | MIC ([8]; Pa-42 A21229, Mueller-Hinton agar, Table 2, read-out: MIC): > 100 µg/mL | MIC ([8]; Pa-43 A21233, Mueller-Hinton agar, Table 2, read-out: MIC): 50 µg/mL (≈ 121 µM) | MIC ([8]; Pa-44 A21274, Mueller-Hinton agar, Table 2, read-out: MIC): 50 µg/mL (≈ 121 µM) | MIC ([8]; Pa-54 A20128, Mueller-Hinton agar, Table 2, read-out: MIC): 50 µg/mL (≈ 121 µM) | MIC ([8]; Pa-58 A20557, Mueller-Hinton agar, Table 2, read-out: MIC): 50 µg/mL (≈ 121 µM) | MIC ([8]; Pa-59 A20574, Mueller-Hinton agar, Table 2, read-out: MIC): 50 µg/mL (≈ 121 µM) | MIC ([8]; Pa-60 A20602, Mueller-Hinton agar, Table 2, read-out: MIC): 12.5 µg/mL (≈ 30.2 µM) | MIC ([8]; Pa-61 A20726, Mueller-Hinton agar, Table 2, read-out: MIC): 50 µg/mL (≈ 121 µM) | MIC ([8]; Pa-62 A21213, Mueller-Hinton agar, Table 2, read-out: MIC): > 100 µg/mL | MIC ([8]; Pa-67 A21509, Mueller-Hinton agar, Table 2, read-out: MIC): 50 µg/mL (≈ 121 µM) | MIC ([8]; Pa-68 A21510, Mueller-Hinton agar, Table 2, read-out: MIC): 50 µg/mL (≈ 121 µM) | MIC ([8]; Pa-69 A21587, Mueller-Hinton agar, Table 2, read-out: MIC): 50 µg/mL (≈ 121 µM) | MIC ([8]; Pa-70 K-Ps102 (CR-102), Mueller-Hinton agar, Table 2, read-out: MIC): 25 µg/mL (≈ 60.3 µM) | MIC [9]: 0.8 µg/mL (≈ 1.93 µM) | MIC ([10]; E. coli Juhl A9435, Table 1): 12.5 µg/mL (≈ 30.2 µM) | MIC ([10]; E. coli Juhl A9844, Table 1, read-out: MIC): 0.8 µg/mL (≈ 1.93 µM) | MIC ([10]; E. coli Juhl A15119, Table 1, read-out: MIC): 3.1 µg/mL (≈ 7.48 µM) | MIC ([10]; E. coli Juhl A20366, Table 1, read-out: MIC): > 100 µg/mL | MIC ([10]; E. coli Juhl A20520, Table 1, read-out: MIC): 6.3 µg/mL (≈ 15.2 µM) | MIC ([10]; E. coli Juhl A20664, Table 1, read-out: MIC): 3.1 µg/mL (≈ 7.48 µM) | MIC ([10]; E. coli Juhl A20732, Table 1, read-out: MIC): > 100 µg/mL | MIC ([10]; E. coli Juhl A20898, Table 1, read-out: MIC): > 100 µg/mL | MIC ([10]; E. coli NIHJ, Table 1, read-out: MIC): 0.8 µg/mL (≈ 1.93 µM) | MIC ([11]; E. cloacae A9656, Table 1): 6.3 µg/mL (≈ 15.2 µM) | MIC ([11]; E. cloacae A9657, Table 1): 100 µg/mL (≈ 241 µM) | MIC ([11]; E. cloacae A9659, Table 1): 12.5 µg/mL (≈ 30.2 µM) | MIC [12]: 12.5 µg/mL (≈ 30.2 µM)
